Patent US20240218022A1, “ANTI-VISTA MACROCYCLIC PEPTIDES AND COMPOSITIONS” (BRISTOL-MYERS SQUIBB COMPANY, priority 2022, published 2024)
Read-outs that look alike come from different tables or passages of the source. Starred links: 1 amine or outer side, 2 acyl side, 3 side chain; linkers in the order of their positions; H or OH if unused. Positions of bridges follow the written chain, without caps; N, C: chain ends. Non-standard residues stand in square brackets, D forms with d. Residues, ends and D or L forms follow the SMILES beside them. Phe(3-Me) = Cc1cccc(C[C@H](N)C(=O)O)c1; γGlu = O=C(O)[C@H](CCC(=O)[*:2])N[*:1]; 2Nal = N[C@@H](Cc1ccc2ccccc2c1)C(=O)O; βAsp = O=C(O)[C@H](CC(=O)[*:2])N[*:1]; Cit = NC(=O)NCCC[C@H](N)C(=O)O; NMeN = CN[C@@H](CC(N)=O)C(=O)O; NMeL = CN[C@@H](CC(C)C)C(=O)O; Ahp(2) = CCCCC[C@H](N)C(=O)O; NMeNle = CCCC[C@H](NC)C(=O)O; Tle = CC(C)(C)[C@H](N)C(=O)O; NMeS = CN[C@@H](CO)C(=O)O; NHexGly = CCCCCCNCC(=O)O; Nle = CCCC[C@H](N)C(=O)O; Orn = NCCC[C@H](N)C(=O)O; Aun = NCCCCCCCCCCC(=O)O; Dap = NC[C@H](N)C(=O)O; AEEA = NCCOCCOCC(=O)O

Target: T1, mouse VISTA (mVISTA) (Mus musculus, UniProt Q9D659)
T1 construct: expressed in transfected cells; host or cells: Human embryonic kidney 293T cells
T1 sequence (Q9D659 33-308): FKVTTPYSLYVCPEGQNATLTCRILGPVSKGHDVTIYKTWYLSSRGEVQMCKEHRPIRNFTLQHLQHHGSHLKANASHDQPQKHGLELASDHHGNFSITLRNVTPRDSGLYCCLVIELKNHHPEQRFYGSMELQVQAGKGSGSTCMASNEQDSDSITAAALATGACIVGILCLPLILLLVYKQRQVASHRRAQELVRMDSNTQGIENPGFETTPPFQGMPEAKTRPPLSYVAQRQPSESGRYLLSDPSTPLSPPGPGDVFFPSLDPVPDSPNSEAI
Test: Cell-Based Binding High-Content Assay For mVISTA (HC CBA mVISTA)
In short: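 mVISTA-293T, 4,000 cells/well; cpd ± washout step; biotin-peptide 2 nM final, 30 min RT; SA-Alexa 647 30 min; formaldehyde/Hoechst fix; HCS imaging; 4PL IC50.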

[1] = cell-based binding high-content assay, mVISTA, the 16th table, read-out: HC CBA mVISTA IC50
[2] = 293T cells expressing mouse VISTA, competition with biotinylated peptide (2 nM), read-out: HC CBA mVISTA IC50
[3] = cell-based binding high-content assay, mVISTA, the 15th table, read-out: HC CBA mVISTA IC50

SMILES	IC50 (read-out: HC CBA mVISTA IC50)	also measured
CCCCCCN1CC(=O)N[C@@H](Cc2ccc(O)cc2)C(=O)N[C@@H](CC(C)C)C(=O)NCC(=O)N[C@@H](CCCNC(=N)N)C(=O)N(C)[C@@H](CCCC)C(=O)N[C@@H](CCCCC)C(=O)N2CCC[C@H]2C(=O)N[C@@H](C(C)C)C(=O)N[C@@H](CO)C(=O)N[C@H](C(=O)NCC(N)=O)CSCC(=O)N[C@@H](Cc2ccc3ccccc3c2)C(=O)N[C@@H](Cc2ccc(O)cc2)C(=O)N[C@@H](CC(=O)O)C1=O [Ex 1294] ({CH2CO}-[2Nal]YD[NHexGly]YLGR[NMeNle][Ahp(2)]PVSCG-NH2; thioether N-14)		IC50 [1]: 9.3 nM
CCCCCCN1CC(=O)N[C@@H](Cc2ccc(O)cc2)C(=O)N[C@@H](CC(C)C)C(=O)N[C@@H](CC(=O)O)C(=O)N[C@@H](CCCNC(=N)N)C(=O)N(C)[C@@H](CO)C(=O)N[C@@H](CCCCC)C(=O)N2CCC[C@H]2C(=O)N[C@@H](C(C)(C)C)C(=O)N[C@@H](CC(N)=O)C(=O)N[C@H](C(=O)N[C@@H](CC(=O)NCCOCCOCC(=O)N[C@@H](CC(=O)O)C(=O)NCCOCCOCC(=O)NCCCCCCCCCCC(=O)O)C(=O)O)CSCC(=O)N[C@@H](Cc2ccccc2)C(=O)N[C@@H](Cc2c[nH]c3ccccc23)C(=O)N[C@@H](CC(=O)O)C1=O [compound 2066] ({CH2CO}-FWD[NHexGly]YLDR[NMeS][Ahp(2)]P[Tle]NC[βAsp][AEEA]D[AEEA][Aun]-OH; thioether N-14)		IC50 (cell-based binding high-content assay, mVISTA, read-out: HC CBA miPr ISTA IC50): 35.3 nM
CCCCCCN1CC(=O)N[C@@H](Cc2ccc(O)cc2)C(=O)N[C@@H](C(C)C)C(=O)NCC(=O)N[C@@H](CCCNC(=N)N)C(=O)N[C@@H](CC(C)C)C(=O)N[C@@H](CCCCC)C(=O)N2CCC[C@H]2C(=O)N[C@@H](C(C)C)C(=O)N[C@@H](CC(=O)O)C(=O)N[C@H](C(=O)N[C@@H](CO)C(=O)N[C@@H](CCCN)C(=O)N[C@@H](CC(N)=O)C(=O)O)CSCC(=O)N[C@@H](Cc2ccc3ccccc3c2)C(=O)N[C@@H](Cc2ccc(O)cc2)C(=O)N[C@@H](CC(=O)O)C1=O [Example 1159] ({CH2CO}-[2Nal]YD[NHexGly]YVGRL[Ahp(2)]PVDCS[Orn]N-OH; thioether N-14)		IC50 [2]: 17.2 nM
CCCCCCN1CC(=O)N[C@@H](Cc2ccc(O)cc2)C(=O)N[C@@H](CCCC)C(=O)N[C@@H](CC(N)=O)C(=O)N[C@@H](CCCNC(=N)N)C(=O)N(C)[C@@H](CC(N)=O)C(=O)N[C@@H](CCCCC)C(=O)N2CCC[C@H]2C(=O)N[C@@H](C(C)C)C(=O)N[C@@H](CC(=O)O)C(=O)N[C@H](C(=O)NCC(=O)O)CSCC(=O)N[C@@H](Cc2ccc3ccccc3c2)C(=O)N[C@@H](Cc2c[nH]c3ccccc23)C(=O)N[C@@H](CC(=O)O)C1=O [compound 1241] ({CH2CO}-[2Nal]WD[NHexGly]Y[Nle]NR[NMeN][Ahp(2)]PVDCG-OH; thioether N-14)		IC50 [3]: 35.1 nM
CCCCCCN1CC(=O)N[C@@H](Cc2ccc(O)cc2)C(=O)N[C@@H](CC(C)C)C(=O)N[C@@H](CC(N)=O)C(=O)N[C@@H](CCCNC(=N)N)C(=O)N(C)[C@@H](CCCC)C(=O)N[C@@H](CCCCC)C(=O)N2CCC[C@H]2C(=O)N[C@@H](C(C)(C)C)C(=O)N[C@@H](CO)C(=O)N[C@H](C(=O)N[C@@H](CCC(=O)NCCCCCCCCCCC(=O)O)C(=O)O)CSCC(=O)N[C@@H](Cc2ccccc2)C(=O)N[C@@H](Cc2ccc(O)cc2)C(=O)N[C@@H](CC(=O)O)C1=O [Example 2136] ({CH2CO}-FYD[NHexGly]YLNR[NMeNle][Ahp(2)]P[Tle]SC[γGlu][Aun]-OH; thioether N-14)	19.8 nM	
CCCCCCN1CC(=O)N[C@@H](Cc2ccc(O)cc2)C(=O)N[C@@H](CCCC)C(=O)N[C@@H](CC(=O)O)C(=O)N[C@@H](CCCNC(=N)N)C(=O)N[C@@H](CC(C)C)C(=O)N[C@@H](CCCCC)C(=O)N2CCC[C@H]2C(=O)N[C@@H](C(C)C)C(=O)N[C@@H](Cc2ccc(O)cc2)C(=O)N[C@H](C(=O)NCC(=O)O)CSCC(=O)N[C@@H](Cc2ccccc2)C(=O)N[C@@H](Cc2ccc(O)cc2)C(=O)N[C@@H](CC(=O)O)C1=O [Example 1071] ({CH2CO}-FYD[NHexGly]Y[Nle]DRL[Ahp(2)]PVYCG-OH; thioether N-14)		IC50 [2]: 17.7 nM
CCCCCCN1CC(=O)N[C@@H](Cc2ccc(O)cc2)C(=O)N[C@@H](CCCCC)C(=O)NCC(=O)N[C@@H](CCCNC(N)=O)C(=O)N[C@@H](CC(C)C)C(=O)N[C@@H](CCCCC)C(=O)N2CCC[C@H]2C(=O)N[C@@H](C(C)C)C(=O)N[C@@H](CO)C(=O)N[C@H](C(=O)NCC(N)=O)CSCC(=O)N[C@@H](Cc2ccc3ccccc3c2)C(=O)N[C@@H](Cc2ccc(O)cc2)C(=O)N[C@@H](CC(=O)O)C1=O [Ex 1302] ({CH2CO}-[2Nal]YD[NHexGly]Y[Ahp(2)]G[Cit]L[Ahp(2)]PVSCG-NH2; thioether N-14)		IC50 [1]: 7.5 nM
CCCCCCN1CC(=O)N[C@@H](Cc2ccc(O)cc2)C(=O)N[C@@H](CCCC)C(=O)N[C@@H](CC(N)=O)C(=O)N[C@@H](CCCNC(=N)N)C(=O)N(C)[C@@H](CO)C(=O)N[C@@H](CCCCC)C(=O)N2CCC[C@H]2C(=O)N[C@@H](C(C)C)C(=O)N[C@@H](CC(=O)O)C(=O)N[C@H](C(=O)NCC(=O)O)CSCC(=O)N[C@@H](Cc2ccc3ccccc3c2)C(=O)N[C@@H](Cc2c[nH]c3ccccc23)C(=O)N[C@@H](CC(=O)O)C1=O [compound 1259] ({CH2CO}-[2Nal]WD[NHexGly]Y[Nle]NR[NMeS][Ahp(2)]PVDCG-OH; thioether N-14)		IC50 [3]: 8 nM
CCCCCCN1CC(=O)N[C@@H](Cc2ccc(O)cc2)C(=O)N[C@@H](CCCC)C(=O)N[C@@H](CC(=O)O)C(=O)N[C@@H](CCCN)C(=O)N[C@@H](CC(C)C)C(=O)N[C@@H](CCCCC)C(=O)N2CCC[C@H]2C(=O)N[C@@H](C(C)C)C(=O)N[C@@H](CC(=O)O)C(=O)N[C@H](C(=O)N[C@@H](CO)C(N)=O)CSCC(=O)N[C@@H](Cc2ccccc2)C(=O)N[C@@H](Cc2c[nH]c3ccccc23)C(=O)N[C@@H](CC(=O)O)C1=O [Example 1365] ({CH2CO}-FWD[NHexGly]Y[Nle]D[Orn]L[Ahp(2)]PVDCS-NH2; thioether N-14)	7.7 nM	

Now from value to compound, other results behind:

IC50 (read-out: HC CBA mVISTA IC50)	SMILES	also measured
9.5 nM	CCCCCCN1CC(=O)N[C@@H](Cc2ccc(O)cc2)C(=O)N[C@@H](CCCC)C(=O)N[C@@H](CC(N)=O)C(=O)N[C@@H](CCCNC(=N)N)C(=O)N(C)[C@@H](CCCC)C(=O)N[C@@H](CCCCC)C(=O)N2CCC[C@H]2C(=O)N[C@@H](C(C)C)C(=O)N[C@@H](CC(=O)O)C(=O)N[C@H](C(=O)N[C@@H](CN)C(=O)N[C@@H](CC(N)=O)C(=O)O)CSCC(=O)N[C@@H](Cc2ccc3ccccc3c2)C(=O)N[C@@H](Cc2c[nH]c3ccccc23)C(=O)N[C@@H](CC(=O)O)C1=O [compound 1136] ({CH2CO}-[2Nal]WD[NHexGly]Y[Nle]NR[NMeNle][Ahp(2)]PVDC[Dap]N-OH; thioether N-14)	
30.8 nM	CCCCCCN1CC(=O)N[C@@H](Cc2ccc(O)cc2)C(=O)N[C@@H](CCCC)C(=O)N[C@@H](CC(N)=O)C(=O)N[C@@H](CCCNC(=N)N)C(=O)N(C)[C@@H](CCCC)C(=O)N[C@@H](CCCCC)C(=O)N2CCC[C@H]2C(=O)N[C@@H](C(C)(C)C)C(=O)N[C@@H](CO)C(=O)N[C@H](C(=O)NCCOCCOCC(=O)N[C@@H](CCC(=O)NCCOCCOCC(=O)NCCCCCCCCCCC(=O)O)C(=O)O)CSCC(=O)N[C@@H](Cc2ccccc2)C(=O)N[C@@H](Cc2cccc(C)c2)C(=O)N[C@@H](CC(=O)O)C1=O [compound 2225] ({CH2CO}-F[Phe(3-Me)]D[NHexGly]Y[Nle]NR[NMeNle][Ahp(2)]P[Tle]SC[AEEA][γGlu][AEEA][Aun]-OH; thioether N-14)	
30.2 nM	CCCCCCN1CC(=O)N[C@@H](Cc2ccc(O)cc2)C(=O)N[C@@H](CCCC)C(=O)N[C@@H](CC(N)=O)C(=O)N[C@@H](CCCNC(=N)N)C(=O)N(C)[C@@H](CCCC)C(=O)N[C@@H](CCCCC)C(=O)N(C)[C@@H](CC(C)C)C(=O)N[C@@H](C(C)(C)C)C(=O)N[C@@H](CO)C(=O)N[C@H](C(=O)N[C@@H](CC(=O)NCCOCCOCC(=O)NCCCCCCCCCCC(=O)O)C(=O)O)CSCC(=O)N[C@@H](Cc2ccccc2)C(=O)N[C@@H](Cc2c[nH]c3ccccc23)C(=O)N[C@@H](CC(=O)O)C1=O [Example 2179] ({CH2CO}-FWD[NHexGly]Y[Nle]NR[NMeNle][Ahp(2)][NMeL][Tle]SC[βAsp][AEEA][Aun]-OH; thioether N-14)	
11 nM	CCCCCCN1CC(=O)N[C@@H](Cc2ccc(O)cc2)C(=O)N[C@@H](CCCCC)C(=O)N[C@@H](CC(N)=O)C(=O)N[C@@H](CCCNC(=N)N)C(=O)N(C)[C@@H](CCCC)C(=O)N[C@@H](CCCCC)C(=O)N2CCC[C@H]2C(=O)N[C@@H](C(C)C)C(=O)N[C@@H](C(C)C)C(=O)N[C@H](C(=O)NCC(=O)O)CSCC(=O)N[C@@H](Cc2ccccc2)C(=O)N[C@@H](Cc2cccc(C)c2)C(=O)N[C@@H](CC(=O)O)C1=O [compound 1344] ({CH2CO}-F[Phe(3-Me)]D[NHexGly]Y[Ahp(2)]NR[NMeNle][Ahp(2)]PVVCG-OH; thioether N-14)	
29.4 nM	CCCCCCN1CC(=O)N[C@@H](Cc2ccc(O)cc2)C(=O)N[C@@H](CCCCC)C(=O)N[C@@H](CC(N)=O)C(=O)N[C@@H](CCCN)C(=O)N(C)[C@@H](CCCC)C(=O)N[C@@H](CCCCC)C(=O)N2CCC[C@H]2C(=O)N[C@@H](C(C)(C)C)C(=O)N[C@@H](CO)C(=O)N[C@H](C(=O)N[C@@H](CCC(=O)NCCCCCCCCCCC(=O)O)C(=O)O)CSCC(=O)N[C@@H](Cc2ccccc2)C(=O)N[C@@H](Cc2ccc(O)cc2)C(=O)N[C@@H](CC(=O)O)C1=O [Example 2143] ({CH2CO}-FYD[NHexGly]Y[Ahp(2)]N[Orn][NMeNle][Ahp(2)]P[Tle]SC[γGlu][Aun]-OH; thioether N-14)	
